Entries after “also recorded” stand apart in the source; their conditions may differ.
Columns and labels:
[1] = system: rat aortic rings; conditions: literature, Offertaler et al. 2003; cited from earlier work
[2] = system: rat aortic rings; assay: Relaxation of phenylephrine pre-contracted aortic rings; set-up: species or system Sabra rats; conditions: for maximum vasorelaxation: FIG. 2A
Experimental: Abdominal aortic rings of male Sabra rats of 300 g average body weight were obtained from the animal facility of the Hebrew University of Jerusalem, campus Ein Kerem, Jerusalem, Israel. The animals were anaesthetized by an intra-peritoneal injection of pentobarbital (50 mg kg^−1). After thoracotomy, the aorta was excised, transferred to a dish filled with Krebs-Henseleit buffer (composition in mM: NaCl 150.0, KCl 5.4, MgSO4 1.17, NaH2 PO4 1.18, NaHCO3 6.0, CaCl2 1.0, HEPES 20.0, glucose 5.5, pH 7.4), cleared of periadventitial tissue, and cut into ring segments (3 mm in length). Only segments of the abdominal aorta were used. Two stainless-steel hooks were carefully passed through the lumen of each ring. One hook was connected to an isometric force transducer (BIOPAC Instruments, Goleta, Calif.) to measure tension in the vessels. The rings were placed in a 10-ml organ bath, gassed with 5% CO2 in O2 and maintained at 37° C. The rings were stretched until an optimal basal tension of 1.0 g. After this tension was achieved they were allowed to equilibrate for 60 minutes with the bath fluid being changed every 15-20 min. Baseline tension usually stabilized within 60 min of mounting, during which time there were four replacements of bathing solution. The segment was then pre-contracted by 5 μM phenylephrine. […] The levels of relaxation were then measured. The endothelial function was assessed by testing the relaxant effect of acetylcholine (10 nM-[…]) on aortic rings pre-contracted with phenylephrine. Failure of acetylcholine to elicit relaxation of aortic rings previously subjected to rubbing of the intimal surface was taken as evidence of endothelium removal. Concentration-response curves were generated by cumulative addition of the agonist. Whenever antagonists (PTX 0.5 μg/ml, SR-141716 A, SR-144528 or 10 μM of 0-1918) were used, they were added 20 min before the agonist (FIG. 2B). All experiments were conducted with aluminum foil-covered organ bath to prevent light-induced degradation of the drugs.

[3] = target: T1, cannabinoid receptor CB1 (Rattus norvegicus, UniProt P20272); assay: Cannabinoid receptor binding, [3H]HU-243 displacement, synaptosomal membranes; conditions: data not shown
T1 construct: from tissue
T1 sequence (P20272 whole entry): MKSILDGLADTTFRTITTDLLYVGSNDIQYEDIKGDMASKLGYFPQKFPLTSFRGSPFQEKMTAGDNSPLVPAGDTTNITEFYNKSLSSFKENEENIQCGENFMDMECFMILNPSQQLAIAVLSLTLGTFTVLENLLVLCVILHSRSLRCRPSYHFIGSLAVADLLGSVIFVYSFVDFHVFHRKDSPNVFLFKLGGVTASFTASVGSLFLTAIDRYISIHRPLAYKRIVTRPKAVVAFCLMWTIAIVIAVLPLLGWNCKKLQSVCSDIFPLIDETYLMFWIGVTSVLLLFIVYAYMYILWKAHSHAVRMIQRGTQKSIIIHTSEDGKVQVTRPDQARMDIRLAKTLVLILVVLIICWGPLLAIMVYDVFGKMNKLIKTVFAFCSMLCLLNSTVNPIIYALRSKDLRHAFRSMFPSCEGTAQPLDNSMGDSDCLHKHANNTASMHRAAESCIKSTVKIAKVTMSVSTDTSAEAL
Experimental: (§1) The protocol for cannabinoid receptor binding has been previously described [Devane W. A. et al. (1992) Science 258, 1946-1949]. […] Bound and free radioligand were separated by centrifugation. The data were normalized to 100% of specific binding, which was determined with 50 nM unlabeled HU-243. The Ki value was determined using the program GraphPad Prism (Version 3.02) which follows the Cheng-Prusoff equation. A sigmoid dose-response (variable slope) built-in equation in this Prism program was used to fit the curves.

[4] = Blood pressure in anesthetized rats after i.v. bolus; format: in vivo, Sabra rats
Experimental: The protocol for testing blood pressure was applied essentially as previously described [Shochina, M. and Horowitz, M. (1989) J. Therm. Biol. 14, 109 113]. Adult male Sabra rats weighing between 225 to 250 g had their femoral vein cannulated for intravenous (i.v.) drug administration. Anesthesia was induced by the intraperitoneal (i.p.) injection of pentobarbital sodium 6%, 60 mg/kg. The femoral artery was cannulated and a catheter (PE 10 cannulae) was connected to a pressure transducer for continuous monitoring of blood pressure with a physiograph (AcKnowledge program). After a 30 minute stabilization period, the animals were injected with either vehicle (sahine:ethanol:Emulphor® 18:1:1) or the drug (Compound 1, as described above, varying from 1 to 10 mg/kg) injected in bolus i.v. in volumes ≧500 μl. The changes in blood pressure were monitored for 60 minutes. […] The hypotensive activity of Compound 1 leads the way to a new class of atypical cannabinoids with no psychotropic activity and with a mechanism of action differing from the anti-hypertensive drugs known to date.

[5] = target: T2, cannabinoid receptor CB2 (Homo sapiens, UniProt P34972); assay: Cannabinoid receptor binding, [3H]HU-243 displacement, transfected cells; conditions: data not shown
T2 construct: expressed in transfected cells
T2 sequence (P34972 whole entry): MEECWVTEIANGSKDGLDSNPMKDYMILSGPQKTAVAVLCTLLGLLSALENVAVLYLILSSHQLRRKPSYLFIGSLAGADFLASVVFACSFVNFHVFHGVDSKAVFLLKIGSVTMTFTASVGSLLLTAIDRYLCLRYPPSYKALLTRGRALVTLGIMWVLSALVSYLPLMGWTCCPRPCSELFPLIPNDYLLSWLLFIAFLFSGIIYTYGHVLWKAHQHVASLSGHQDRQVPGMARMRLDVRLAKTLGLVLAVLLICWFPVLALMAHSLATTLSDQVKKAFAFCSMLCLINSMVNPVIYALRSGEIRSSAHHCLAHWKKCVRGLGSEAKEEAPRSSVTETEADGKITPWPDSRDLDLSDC
Experimental: as §1

[6] = target: T1, cannabinoid receptor CB1; conditions: high affinity receptor probe; read-out: dissociation constant; cited from earlier work

For `C=C(C)[C@@H]1CCC(C)=C[C@H]1c1c(O)cc(O)cc1CCCCC` (relative stereo) [Abn-CBD, (−)-4-(3-3,4-trans-p-menthadien-1,8)-yl-olivetol], the “antagonism by O-1918” value [1] is listed as “antagonized by 0-1918”.
With `CCCCCCC(C)(C)c1cc(O)c(C/C=C(\C)CCC=C(C)C)c(O)c1` [Compound 1, 2-geranyl-5-(1,1-dimethylheptyl)-resorcinol] the “antagonism of relaxation by O-1918” value ([2]; 10 μM O-1918 added 20 min before agonist, FIG. 2B, listed as CBG-DMH) was “did not result in antagonism; also recorded: does not antagonize”, the “relaxation of pre-contracted segments” value ([2]; cumulative doses, 5 μM phenylephrine pre-contraction) was “led to relaxation of the contracted segments” and the maximum vasorelaxation ([2]; denuded artery) was 25%. For the same molecule, the maximum vasorelaxation ([2]; intact artery) was 55%, the “aortic vasorelaxant effect in presence of pertussis toxin” value ([2]; pertussis toxin 0.5 μg/ml, data not shown) was “inhibited in the presence of pertussis toxin” and the vasodilator function ([2]; preliminary data) was “functions as a vasodilator”. For the same molecule, the “binding to CB1” value [3] was “no binding”, the “effect on blood pressure (BP)” value ([4]; 2.5 mg/kg i.v., FIG. 1) was “Reduction in blood pressure is already observed” and the “change in heart rate” value ([4]; 5 mg/kg i.v.) was “without causing change in the heart rate”. The “effect on blood pressure (BP)” value ([4]; 5 mg/kg i.v.) was “caused hypotension”, the “effect on blood pressure (BP)” value ([4]; 5 mg/kg i.v., listed as CBG-DMH) was “the effect becomes much more pronounced” and the “mean systolic blood pressure over 60 minutes” value ([4]; 1 to 10 mg/kg bolus i.v., FIG. 1) was “clear reduction of the systolic blood pressure”. For the same molecule, the “antagonism of hypotensive effect by CBD” value ([4]; CBD in similar doses) was “antagonized by CBD” and the “binding to CB2” value [5] was “no binding”.
For `CCCCCCC(C)(C)c1cc(O)c2c(c1)OC(C)(C)[C@@H]1CC[C@@H](CO)C[C@@H]21` [[^3H]HU-243], the Kd [6] is given as 0.045 nM.
